Patent US20220025419A1, “N-GLYCOSYLATION OF PEPTIDES AND PROTEINS” (priority 2013, published 2022)

Columns and labels:
PglB [1] = molecular target: T1, PglB (Campylobacter jejuni subsp. jejuni serotype O:2, UniProt Q0P9C8); conditions: glycolipid 1-200 μM, peptide 20 μM, PglB 0.44 μM, reaction time <2 h, duplicate
Method: Reaction mixtures were prepared as described above in Example 6 and incubated in a thermo cycler for 2 h at 30° C. Glycosylation was terminated by flash increasing of temperature to 95° C. for 2 minutes. Peptide mixtures were cleaned up and subjected to UPLC. The separation of the glycosylated peptide from unglycosylated was achieved by normal phase using Waters Acquity UPLC column (BEH glycan, 2.1×150 mm, 1.7-μm particles). Concentration of un- and glycosylated peptides was measured by calculating the area of corresponding peaks (FIG. 3.)

PglB [2] = molecular target: T1, PglB; experiment: Synthetic optimization of peptide glycosylation by PglB, HPLC/LC-MS conversion; type: biochemical; parameters: 10His (C); made in house; host or cells: E. coli Rosetta; conditions: peptide:glycolipid 1:5, RT overnight, HPLC peak areas, FIG. 2a
Method: To a 10 μL of purified PglB (40 μM) in 1.5 mL eppendorf tube was added 34 μL of buffer (HEPES 10 mM, pH 7.5 containing 1 mM MnCl2 and 1% Triton-X 100). […] For the gel analysis, 8 μL of reaction mixture was treated with 2 μL of 4X SDS sample buffer and heated to 90° C. for 5 minutes. Analytical HPLC was carried out on a Waters 2795 separation module HPLC instrument equipped with a Jasco FP-920 Intelligent Fluorescent Detector (Excitation at 542 nm, Emission at 572 nm). Phenomenex Jupiter 4μ proteo 90A (250×4.6 mm) column was used with a gradient of 0-20%, 20-45%, 45-95% Acetonitrile with 0.1% formic acid at a flow rate of 1 ml/min. Product eluted with a retention time of 6.6 min and identification was performed using the Micromass LCT (TOF ESI). Conversion of the reaction was quantified by integration of the respective peak areas of product and remaining starting peptide.

PglB [3] = molecular target: T1, PglB; experiment: In vitro glycosylation of AcrA protein by PglB, ES-MS analysis; type: biochemical; parameters: 10His (C); made in house; host or cells: E. coli Rosetta; conditions: AcrA-His6 129 pmol, glycolipid 25.6 nmol, 25° C., 36 hours
Text: Using the process described in Example 6a the two consensus Asn sites in the C. jejuni AcrA protein (overexpressed and purified from E. coli using pET24 (AcrA-Cys) according to the literature protocol [Kowarik, M. et. al., Science, 2006, 314, 1148-1150; Lazar, M. N. et. al., Glycobiology, 2005, 15 (4), 361-367]) were glycosylated using glycolipid substrates (Examples 2 and 4).

T1 sequence (Q0P9C8 whole entry): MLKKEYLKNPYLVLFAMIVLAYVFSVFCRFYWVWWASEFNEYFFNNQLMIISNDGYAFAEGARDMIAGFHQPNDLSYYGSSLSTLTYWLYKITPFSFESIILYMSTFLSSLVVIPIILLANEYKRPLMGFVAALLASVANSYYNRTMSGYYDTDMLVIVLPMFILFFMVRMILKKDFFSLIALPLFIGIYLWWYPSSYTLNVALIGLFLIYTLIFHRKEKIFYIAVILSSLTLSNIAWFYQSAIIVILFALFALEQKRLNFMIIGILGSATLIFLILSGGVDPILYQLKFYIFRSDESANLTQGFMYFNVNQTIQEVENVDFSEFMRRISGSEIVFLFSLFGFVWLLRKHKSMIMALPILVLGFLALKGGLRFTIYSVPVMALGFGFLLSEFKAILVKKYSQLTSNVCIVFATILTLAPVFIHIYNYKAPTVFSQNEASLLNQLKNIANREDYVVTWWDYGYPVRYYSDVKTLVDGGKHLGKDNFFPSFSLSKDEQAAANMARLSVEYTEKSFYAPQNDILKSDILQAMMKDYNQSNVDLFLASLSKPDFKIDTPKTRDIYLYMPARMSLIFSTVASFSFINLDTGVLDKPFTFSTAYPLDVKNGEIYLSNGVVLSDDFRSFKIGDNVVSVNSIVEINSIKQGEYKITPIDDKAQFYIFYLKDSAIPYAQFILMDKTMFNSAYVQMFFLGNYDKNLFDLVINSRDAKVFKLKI

CC(=O)NC1C(O)[C@H](O)C(CO)O[C@@H]1OP(=O)(O)OP(=O)(O)OC/C=C(/C)CC/C=C(/C)CC/C=C(/C)CC/C=C(/C)CC/C=C(/C)CC/C=C(\C)CC/C=C(\C)CCC=C(C)C (stereo partly drawn) [Comparative Example 5, P^1-2-Acetamido-2-deoxy-α-D-glucopyranosyl P^2-(2Z,6Z,10Z,14Z,18Z,22E,26E)-3,7,11,15,19,23,27,31-octamethyldotriaconta-2,6,10,14,18,22,26,30-octaen-1-yl diphosphate, reference compound]
Km (PglB [1]): 34 ± 10 µM | kcat (PglB [1]): 0.000375 ± 3.5e-05 s⁻¹

CC(=O)NC1[C@@H](OP(=O)(O)OP(=O)(O)OC/C=C(/C)CC/C=C(/C)CC/C=C(/C)CCC=C(C)C)OC(CO)[C@@H](O)[C@@H]1O (stereo partly drawn) [Example 1, P^1-2-Acetamido-2-deoxy-α-D-glucopyranosyl P^2-(2Z,6Z,10Z)-3,7,11,15-tetramethyl hexadeca-2,6,10,14-tetraen-1-yl diphosphate]
Km (PglB [1]): 77 ± 16 µM | kcat (PglB [1]): 0.00039 ± 3.5e-05 s⁻¹

CC(=O)NC1[C@@H](OP(=O)([O-])OP(=O)([O-])OC/C=C(/C)CC/C=C(/C)CC/C=C(/C)CC/C=C(/C)CC/C=C(\C)CCC=C(C)C)OC(CO)[C@@H](O)[C@@H]1O.[Na+].[Na+] (stereo partly drawn) [Example 4, P^1-2-Acetamido-2-deoxy-α-D-glucopyranosyl P^2-(2Z,6Z,10Z,14Z,18E)-3,7,11,15,19,23-hexamethyltetraicosa-2,6,10,14,18,22-hexaen-1-yl diphosphate]
Km (PglB [1]): 55 ± 10 µM | kcat (PglB [1]): 0.000385 ± 2.67e-05 s⁻¹ | conversion, optimised glycosylation of TAMRA-peptide (PglB [2]): 92% | conversion to the diglycosylated AcrA protein (PglB [3]): > 95%
